Like-named read-outs stand apart in the source and are kept apart here. *1 amine or outer side, *2 acyl side, *3 side chain or, on linkers, in order; H or OH if unused. Where a SMILES comes first, the peptide text is derived from it. Bridges are numbered along the chain shown (N, C = ends). [ ]: non-standard residue; d: D form. The star is where a group is joined. hPhe(3-Cl-4-CF3) = N[C@@H](CCc1ccc(C(F)(F)F)c(Cl)c1)C(=O)O; NPrPhe(4-CF3) = CCCN[C@@H](Cc1ccc(C(F)(F)F)cc1)C(=O)O; X35 = COCCN([C@@H](Cc1ccc(C)cc1)C(=O)[*:2])[*:1]; NMeGly(cPent) = CN[C@H](C(=O)O)C1CCCC1; NMeD = CN[C@@H](CC(=O)O)C(=O)O; NMeL = CN[C@@H](CC(C)C)C(=O)O; Ac6c = NC1(C(=O)O)CCCCC1; Morpholide = C1CN(*)CCO1; NMeA = CN[C@@H](C)C(=O)O; Ac5c = NC1(C(=O)O)CCCC1; Aze = O=C(O)[C@@H]1CCN1; Sar = CNCC(=O)O
Tests used:
[1] = molecular target: GDP-bound KRAS wild-type protein (Homo sapiens, UniProt P01116); assay: Binding to KRAS by surface plasmon resonance (SPR), Single Cycle Kinetics; settings: GDP-bound KRAS wild-type protein, read-out: KRAS KD
Chain of GDP-bound KRAS wild-type protein (P01116 whole entry): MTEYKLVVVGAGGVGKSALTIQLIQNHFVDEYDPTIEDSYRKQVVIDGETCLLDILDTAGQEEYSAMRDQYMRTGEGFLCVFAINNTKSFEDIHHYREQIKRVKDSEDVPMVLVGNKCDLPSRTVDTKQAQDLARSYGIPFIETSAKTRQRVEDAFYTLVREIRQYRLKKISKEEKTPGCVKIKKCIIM

[2] = molecular target: GDP-bound HRAS wild-type protein (Homo sapiens, UniProt P01112); assay: Binding to HRAS by surface plasmon resonance (SPR), Single Cycle Kinetics; settings: for HRAS/KRAS (ratio of KD value for HRAS to KD value for KRAS): SPR, GDP-bound HRAS wild-type protein vs GDP-bound KRAS wild-type protein; for HRAS/KRAS (ratio of KD value with respect to GDP-bound HRAS wild-type protein to KD value with respect to KRAS): SPR KD ratio HRAS/KRAS, class symbols
Chain of GDP-bound HRAS wild-type protein (P01112 whole entry): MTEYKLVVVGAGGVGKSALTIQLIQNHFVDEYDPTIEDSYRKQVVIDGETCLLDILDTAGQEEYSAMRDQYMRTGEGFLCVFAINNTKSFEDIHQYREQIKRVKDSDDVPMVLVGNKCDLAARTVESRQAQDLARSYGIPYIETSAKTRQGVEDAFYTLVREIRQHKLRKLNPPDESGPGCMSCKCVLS

[3] = molecular target: GDP-bound NRAS wild-type protein (Homo sapiens, UniProt P01111); assay: Binding to NRAS by surface plasmon resonance (SPR), Single Cycle Kinetics; settings: for NRAS/KRAS (ratio of KD value for NRAS to KD value for KRAS): SPR, GDP-bound NRAS wild-type protein vs GDP-bound KRAS wild-type protein; for NRAS/KRAS (ratio of KD value with respect to GDP-bound NRAS wild-type protein to KD value with respect to KRAS): SPR KD ratio NRAS/KRAS, class symbols
Chain of GDP-bound NRAS wild-type protein (P01111 whole entry): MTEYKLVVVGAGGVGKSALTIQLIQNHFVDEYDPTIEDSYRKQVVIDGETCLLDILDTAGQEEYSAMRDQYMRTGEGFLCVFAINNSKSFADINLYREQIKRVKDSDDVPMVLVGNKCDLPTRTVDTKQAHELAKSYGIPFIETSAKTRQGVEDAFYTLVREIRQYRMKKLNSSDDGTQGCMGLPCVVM

[4] = SPR Single Cycle Kinetics, 1:1 binding model

Row | Kd ([1]; SPR, Single Cycle Kinetics) | Kd [1, 4] | SMILES | HRAS/KRAS (ratio of KD value for HRAS to KD value for KRAS) [2] | NRAS/KRAS (ratio of KD value for NRAS to KD value for KRAS) [3] | HRAS/KRAS (ratio of KD value with respect to GDP-bound HRAS wild-type protein to KD value with respect to KRAS) [2] | NRAS/KRAS (ratio of KD value with respect to GDP-bound NRAS wild-type protein to KD value with respect to KRAS) [3]
1 | 19 nM | – | CC[C@H](C)[C@@H]1NC(=O)[C@H](CC(C)C)N(C)C(=O)C[C@@H](C(=O)N2CCOCC2)N(CC)C(=O)[C@H](C2CCCC2)N(C)C(=O)C2(CCC2)NC(=O)[C@@H]2[C@H](O)CCN2C(=O)[C@H](CCc2cc(F)c(C(F)(F)F)c(F)c2)NC(=O)CN(C)C(=O)[C@H](Cc2ccc(C(F)(F)F)cc2)N2CCCCC[C@@H](C2=O)N(C)C(=O)CN(C)C1=O [PP0955] | A (a compound having 10 or more and less than 20 is denoted as A) | A (a compound having 10 or more and less than 20 is denoted as A) | – | –
2 | – | 0.1 nM | CCCC[C@H]1C(=O)N[C@@H]([C@@H](C)CC)C(=O)N(C)CC(=O)N(C)[C@H]2C/C=C\CCN(C2=O)[C@@H](Cc2ccc(C(F)(F)F)cc2)C(=O)N(C)CC(=O)N[C@@H](CCc2ccc(C(F)(F)F)c(OC)c2)C(=O)N2C[C@H](OCC)C[C@H]2C(=O)NC2(CCC2)C(=O)N(C)[C@@H](C2CCCC2)C(=O)N(C)[C@H](C(=O)N(C)CC)CC(=O)N1C [PP2840] | – | – | A (a compound having 10 or more and less than 20 is denoted as A) | A (a compound having 10 or more and less than 20 is denoted as A)
3 | – | 2.5 nM | CCC(CC)[C@H]1C(=O)N(C)[C@H](C(=O)N(C)C)CC(=O)N(C)[C@@H](COC)C(=O)N[C@@H]([C@@H](C)CC)C(=O)N(C)CC(=O)N(C)[C@H]2C/C=C\CCN(C2=O)[C@@H](Cc2ccc(C(F)(F)F)cc2)C(=O)N(C)CC(=O)N[C@@H](CCc2ccc(Cl)c(Cl)c2)C(=O)N2CCOC[C@H]2C(=O)NC2(CC(C)(C)C2)C(=O)N1C [PP2941] | – | – | A (a compound having 10 or more and less than 20 is denoted as A) | AA (a compound having 20 or more is denoted as AA)
4 | 2.3 nM | – | CCO[C@@H]1C[C@H]2C(=O)NC3(CC(C)(C)C3)C(=O)N(C)[C@@H](C(CC)CC)C(=O)N(C)[C@H](C(=O)N(C)C)CC(=O)N(C)[C@@H](C)C(=O)N[C@@H]([C@@H](C)CC)C(=O)N(C)CC(=O)N(C)[C@H]3C/C=C\CCN(C3=O)[C@@H](Cc3ccc(C)cc3)C(=O)N(C)CC(=O)N[C@@H](CCc3ccc(Cl)c(Cl)c3)C(=O)N2C1 [PP2186] | A (a compound having 10 or more and less than 20 is denoted as A) | AA (a compound having 20 or more is denoted as AA) | – | –
5 | – | 0.47 nM | CCCN1C(=O)[C@@H]2CCN2C(=O)[C@H](C)N(C)C(=O)[C@H]([C@@H](C)CC)NC(=O)[C@H](CC(C)C)N(C)C(=O)C[C@@H](C(=O)N2CCOCC2)N(C)C(=O)[C@H](C2CCCC2)N(C)C(=O)C2(CCCCC2)NC(=O)[C@@H]2CCCN2C(=O)[C@H](CCc2ccc(C(F)(F)F)c(Cl)c2)NC(=O)CN(C)C(=O)[C@@H]1Cc1ccc(C(F)(F)F)cc1 [PP0226] ([NMeL]I[NMeA][Aze][NPrPhe(4-CF3)][Sar][hPhe(3-Cl-4-CF3)]P[Ac6c][NMeGly(cPent)][NMeD]-Morpholide; lactam N-11) | B (a compound having 3 or more and less than 10 is denoted as B) | C (A compound having a KD ratio of 0.1 or more and less than 3 is denoted as C) | – | –
6 | – | 0.25 nM | CC[C@H](C)[C@@H]1NC(=O)[C@H](CC(C)C)N(C)C(=O)C[C@@H](C(=O)N2CCOCC2)N(C)C(=O)[C@H](C2CCCC2)N(C)C(=O)C2(CCCC2)NC(=O)[C@@H]2CCCN2C(=O)[C@H](CCc2ccc(C(F)(F)F)c(Cl)c2)NC(=O)CN(C)C(=O)[C@H](Cc2ccc(C)cc2)N(CCOC)C(=O)CN(C)C(=O)CN(C)C1=O [PP0104] ([NMeL]I[Sar][Sar][X35][Sar][hPhe(3-Cl-4-CF3)]P[Ac5c][NMeGly(cPent)][NMeD]-Morpholide; lactam N-11) | C (A compound having a KD ratio of 0.1 or more and less than 3 is denoted as C) | B (a compound having 3 or more and less than 10 is denoted as B) | – | –
7 | 0.81 nM | – | CCC[C@H]1C(=O)N[C@@H](C(CC)CC)C(=O)N(C)CC(=O)N(C)[C@H]2C/C=C\CCN(C2=O)[C@@H](Cc2ccc(C)cc2)C(=O)N(C)CC(=O)N[C@@H](CCc2ccc(C(F)(F)F)c(Cl)c2)C(=O)N2C[C@H](OCC)C[C@H]2C(=O)NC2(CC(C)(C)C2)C(=O)N(C)[C@@H](C2CCCC2)C(=O)N(C)[C@H](C(=O)N(C)C)CC(=O)N1C [PP2209] | A (a compound having 10 or more and less than 20 is denoted as A) | A (a compound having 10 or more and less than 20 is denoted as A) | – | –

Reference: patent US20240158446A1, “CYCLIC COMPOUND HAVING SELECTIVE INHIBITORY ACTION ON KRAS OVER HRAS AND NRAS” (CHUGAI SEIYAKU KABUSHIKI KAISHA, priority 2021, published 2024)
